Data reported in PubChem BioAssay AID1360 (Sanford-Burnham Center for Chemical Genomics, 2008).
Active and inactive are the calls of the source.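 The calls were made as follows: active = no phosphorylated c-Jun band on immunoblot of thapsigargin-stressed cells, like the unstressed control; inactive = a phosphorylated c-Jun band visible, like the stressed control.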

Tested on: CSM14.1 cells, phospho-c-Jun Western blot, thapsigargin
Test: inhibitors of thapsigargin-driven c-Jun phosphorylation, mechanism study for ER stress cell death inhibitors, CSM14.1 cells, Western blot (AID 1360)

Compound	outcome
O=C1CC(c2ccccc2)CC2=C1C(c1c(F)cccc1Cl)Nc1ccccc1N2 (stereo unspecified)	active
CCOc1cc(C2Nc3ccccc3NC3=C2C(=O)CC(c2ccc(OC)cc2)C3)cc(Cl)c1O (stereo unspecified)	active
CCOc1cccc(C2Nc3ccccc3NC3=C2C(=O)CC(c2ccc(OC)cc2)C3)c1 (stereo unspecified)	active
COc1ccc(C2CC(=O)C3=C(C2)Nc2ccccc2NC3c2cccc(Br)c2)cc1OC (stereo unspecified)	active
CSc1ccc(C2Nc3ccccc3NC3=C2C(=O)CC(c2ccccc2)C3)cc1 (stereo unspecified)	active
COc1ccc(C2CC(=O)C3=C(C2)Nc2ccccc2NC3c2ccccc2C(F)(F)F)cc1OC (stereo unspecified)	active
CC1(C)CC(=O)C2=C(C1)Nc1ccccc1NC2c1ccc(-c2ccccc2)cc1 (stereo unspecified)	active
COc1ccc(C2CC(=O)C3=C(C2)Nc2ccccc2NC3c2cccc(Oc3ccccc3)c2)cc1OC (stereo unspecified)	active
COc1ccc(C2CC(=O)C3=C(C2)Nc2ccccc2NC3c2cccc(C(F)(F)F)c2)cc1OC (stereo unspecified)	active
CCCOc1ccc(C2Nc3ccccc3NC3=C2C(=O)CC(c2ccc(OC)c(OC)c2)C3)cc1 (stereo unspecified)	active
COc1ccc(C2CC(=O)C3=C(C2)Nc2ccccc2NC3c2cc(C)ccc2C)cc1 (stereo unspecified)	active
